26 compounds from US20230365592A1 (Agios Pharmaceuticals, Inc., priority 2022, published 2023) can be followed below.

The structures appear in SMILES notation.

This assay addresses T1, human PAH with the R408W mutation (Homo sapiens, UniProt P00439, R408W).
T1 construct: expressed in transfected cells
T1 sequence (P00439 1-452 R408W): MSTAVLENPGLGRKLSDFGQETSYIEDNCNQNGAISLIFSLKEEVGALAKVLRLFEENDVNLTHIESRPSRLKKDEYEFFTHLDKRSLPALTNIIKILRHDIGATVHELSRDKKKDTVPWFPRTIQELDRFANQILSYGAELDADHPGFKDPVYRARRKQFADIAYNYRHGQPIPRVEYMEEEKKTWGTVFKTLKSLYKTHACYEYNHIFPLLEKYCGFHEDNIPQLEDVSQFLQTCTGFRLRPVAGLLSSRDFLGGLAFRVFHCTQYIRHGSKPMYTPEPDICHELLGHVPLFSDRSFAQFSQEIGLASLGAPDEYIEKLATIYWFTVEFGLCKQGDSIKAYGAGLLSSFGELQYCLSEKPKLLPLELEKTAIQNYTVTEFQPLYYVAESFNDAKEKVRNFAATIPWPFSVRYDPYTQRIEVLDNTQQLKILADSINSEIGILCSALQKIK
The assay is described as follows: Cell Based Phenylalanine Flux Assay.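 Also: after compound treatment, cells received sepiapterin plus isotope-labelled Phenylalanine for 4 hours, then labelled Tyrosine in the medium was quantified, 10-point 2-fold dilution series run in duplicate.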 To be noted: A375 cells expressing human PAH R408W; 24 hrs compound incubation; 13C-Tyrosine by LC-MS; average where tested multiple times; read-out: AC50.

Broadly, the AC50 is the midpoint of the concentration-response curve, whichever way the signal moves. `Cc1cc(-c2nnc(C(=O)N3CCc4[nH]cnc4[C@H]3c3cc4c(C5CC5)cccn4n3)o2)nn1C` [Example 1933, (S)-(4-(4-cyclopropylpyrazolo[1,5-a]pyridin-2-yl)-1,4,6,7-tetrahydro-5H-imidazo[4,5-c]pyridin-5-yl)(5-(1,5-dimethyl-1H-pyrazol-3-yl)-1,3,4-oxadiazol-2-yl)methanone]: the AC50 lay within 500 to 1000 nM.
Take `CC(C)c1cccn2nc([C@@H]3c4nc[nH]c4CCN3C(=O)c3nnc(-c4cnccn4)o3)cc12` [Example 1934, (S)-(4-(4-isopropylpyrazolo[1,5-a]pyridin-2-yl)-1,4,6,7-tetrahydro-5H-imidazo[4,5-c]pyridin-5-yl)(5-(pyrazin-2-yl)-1,3,4-oxadiazol-2-yl)methanone]: the AC50 is under 500 nM.
With `CC(C)c1cccn2nc([C@H]3c4nc[nH]c4CCN3C(=O)c3nnc(-c4cnn(C(F)F)c4)o3)cc12` [Example 1937, (R)-(5-(1-(difluoromethyl)-1H-pyrazol-4-yl)-1,3,4-oxadiazol-2-yl)(4-(4-isopropylpyrazolo[1,5-a]pyridin-2-yl)-1,4,6,7-tetrahydro-5H-imidazo[4,5-c]pyridin-5-yl)methanone], the AC50 fell in the range of 1000 to 5000 nM.
As for `Cc1cccn2nc([C@H]3c4nc[nH]c4CCN3c3ccc(C(F)(F)F)cn3)cc12` [Example 1940, (R)-4-(4-methylpyrazolo[1,5-a]pyridin-2-yl)-5-(5-(trifluoromethyl)pyridin-2-yl)-4,5,6,7-tetrahydro-1H-imidazo[4,5-c]pyridine], the figure is over 5000 nM; as for `Cc1cccn2nc([C@@H]3c4nc[nH]c4CCN3c3ccc(C(F)(F)F)cn3)cc12` [Example 1941, (S)-4-(4-methylpyrazolo[1,5-a]pyridin-2-yl)-5-(5-(trifluoromethyl)pyridin-2-yl)-4,5,6,7-tetrahydro-1H-imidazo[4,5-c]pyridine], under 500 nM; as for `Fc1cccn2nc([C@@H]3c4nc[nH]c4CCN3c3ccc(C(F)(F)F)cn3)cc12` [Example 1943, (S)-4-(4-fluoropyrazolo[1,5-a]pyridin-2-yl)-5-(5-(trifluoromethyl)pyridin-2-yl)-4,5,6,7-tetrahydro-1H-imidazo[4,5-c]pyridine], under 500 nM.
As to `Cc1cccn2nc([C@@H]3c4nc[nH]c4CCN3C(=O)c3ocnc3C3CC3)cc12` [Example 1944, (S)-(4-cyclopropyloxazol-5-yl)(4-(4-methylpyrazolo[1,5-a]pyridin-2-yl)-1,4,6,7-tetrahydro-5H-imidazo[4,5-c]pyridin-5-yl)methanone], the AC50 was under 500 nM.
Take `Cc1cccn2nc([C@H]3c4nc[nH]c4CCN3C(=O)c3ocnc3C3CC3)cc12` [Example 1945, (R)-(4-cyclopropyloxazol-5-yl)(4-(4-methylpyrazolo[1,5-a]pyridin-2-yl)-1,4,6,7-tetrahydro-5H-imidazo[4,5-c]pyridin-5-yl)methanone]: the concentration at half-maximal activity (AC50) fell in the range of 1000 to 5000 nM.
As for `CC(C)c1cccn2nc([C@@H]3c4nc[nH]c4CCN3C(=O)c3nnc(-c4cnn(C(F)(F)F)c4)o3)cc12` [Example 1946, (S)-(4-(4-isopropylpyrazolo[1,5-a]pyridin-2-yl)-1,4,6,7-tetrahydro-5H-imidazo[4,5-c]pyridin-5-yl)(5-(1-(trifluoromethyl)-1H-pyrazol-4-yl)-1,3,4-oxadiazol-2-yl)methanone], the AC50 is under 500 nM.
Next, `CC(C)c1cccn2nc([C@H]3c4nc[nH]c4CCN3C(=O)c3nnc(-c4ccn(C)n4)o3)cc12` [Example 1950, (R)-(4-(4-isopropylpyrazolo[1,5-a]pyridin-2-yl)-1,4,6,7-tetrahydro-5H-imidazo[4,5-c]pyridin-5-yl)(5-(1-methyl-1H-pyrazol-3-yl)-1,3,4-oxadiazol-2-yl)methanone]: over 5000 nM.
Turning to `CC(C)c1cccn2nc([C@@H]3c4nc[nH]c4CCN3C(=O)c3nnc(-c4ccn(C)n4)o3)cc12` [Example 1951, (S)-(4-(4-isopropylpyrazolo[1,5-a]pyridin-2-yl)-1,4,6,7-tetrahydro-5H-imidazo[4,5-c]pyridin-5-yl)(5-(1-methyl-1H-pyrazol-3-yl)-1,3,4-oxadiazol-2-yl)methanone], the AC50 is under 500 nM.
In the case of `Fc1cccc(N2CCc3[nH]cnc3[C@@H]2c2cc3c(F)cccn3n2)n1` [Example 1954, (R)-4-(4-fluoropyrazolo[1,5-a]pyridin-2-yl)-5-(6-fluoropyridin-2-yl)-4,5,6,7-tetrahydro-1H-imidazo[4,5-c]pyridine], the AC50 lay in the range of 1000 to 5000 nM.
As for `Fc1cccc(N2CCc3[nH]cnc3[C@H]2c2cc3c(F)cccn3n2)n1` [Example 1955, (S)-4-(4-fluoropyrazolo[1,5-a]pyridin-2-yl)-5-(6-fluoropyridin-2-yl)-4,5,6,7-tetrahydro-1H-imidazo[4,5-c]pyridine], the AC50 is under 500 nM.
For `CC(C)(F)c1ncc(C(=O)N2CCc3[nH]cnc3[C@H]2c2cc3ccccn3n2)o1` [Example 1957, (S)-(2-(2-fluoropropan-2-yl)oxazol-5-yl)(4-(pyrazolo[1,5-a]pyridin-2-yl)-1,4,6,7-tetrahydro-5H-imidazo[4,5-c]pyridin-5-yl)methanone], the AC50 was 500 to 1000 nM.
As for `Cc1cccn2nc([C@@H]3c4nc[nH]c4CCN3C(=O)c3cnc(-c4cnn(C)c4)o3)cc12` [Example 1960, (S)-(2-(1-methyl-1H-pyrazol-4-yl)oxazol-5-yl)(4-(4-methylpyrazolo[1,5-a]pyridin-2-yl)-1,4,6,7-tetrahydro-5H-imidazo[4,5-c]pyridin-5-yl)methanone], the figure is 500 to 1000 nM; as for `Cc1cccn2nc([C@H]3c4nc[nH]c4CCN3C(=O)c3cnc(-c4cnn(C)c4)o3)cc12` [Example 1961, (R)-(2-(1-methyl-1H-pyrazol-4-yl)oxazol-5-yl)(4-(4-methylpyrazolo[1,5-a]pyridin-2-yl)-1,4,6,7-tetrahydro-5H-imidazo[4,5-c]pyridin-5-yl)methanone], over 5000 nM.
In the case of `Cc1cccn2nc([C@@H]3c4nc[nH]c4CCN3C(=O)c3cnc(-c4cnn(C)c4C)o3)cc12` [Example 1962, (S)-(2-(1,5-dimethyl-1H-pyrazol-4-yl)oxazol-5-yl)(4-(4-methylpyrazolo[1,5-a]pyridin-2-yl)-1,4,6,7-tetrahydro-5H-imidazo[4,5-c]pyridin-5-yl)methanone], the AC50 was 500 to 1000 nM.
Regarding `Cc1cccn2nc([C@@H]3c4nc[nH]c4CCN3C(=O)c3cnc(-c4ccccn4)o3)cc12` [Example 1964, (S)-(4-(4-methylpyrazolo[1,5-a]pyridin-2-yl)-1,4,6,7-tetrahydro-5H-imidazo[4,5-c]pyridin-5-yl)(2-(pyridin-2-yl)oxazol-5-yl)methanone], the AC50 was 500 to 1000 nM.
Next, `Cc1cccn2nc([C@H]3c4nc[nH]c4CCN3C(=O)c3cnc(-c4ccccn4)o3)cc12` [Example 1965, (R)-(4-(4-methylpyrazolo[1,5-a]pyridin-2-yl)-1,4,6,7-tetrahydro-5H-imidazo[4,5-c]pyridin-5-yl)(2-(pyridin-2-yl)oxazol-5-yl)methanone]: over 5000 nM.
In the case of `O=C(c1nnc(-c2ccccn2)s1)N1CCc2[nH]cnc2[C@H]1c1cc2ccccn2n1` [Example 1966, (S)-(4-(pyrazolo[1,5-a]pyridin-2-yl)-1,4,6,7-tetrahydro-5H-imidazo[4,5-c]pyridin-5-yl)(5-(pyridin-2-yl)-1,3,4-thiadiazol-2-yl)methanone], the concentration at half-maximal activity (AC50) was under 500 nM.
Turning to `O=C(c1nnc(-c2ccccn2)s1)N1CCc2[nH]cnc2[C@@H]1c1cc2ccccn2n1` [Example 1967, (R)-(4-(pyrazolo[1,5-a]pyridin-2-yl)-1,4,6,7-tetrahydro-5H-imidazo[4,5-c]pyridin-5-yl)(5-(pyridin-2-yl)-1,3,4-thiadiazol-2-yl)methanone], the AC50 was over 5000 nM.
As for `Cc1cccn2nc([C@@H]3c4nc[nH]c4CCN3C(=O)c3nnc(-c4cncnc4)o3)cc12` [Example 1972, (S)-(4-(4-methylpyrazolo[1,5-a]pyridin-2-yl)-1,4,6,7-tetrahydro-5H-imidazo[4,5-c]pyridin-5-yl)(5-(pyrimidin-5-yl)-1,3,4-oxadiazol-2-yl)methanone], the AC50 was in the range of 500 to 1000 nM.
For `Cc1cccn2nc([C@H]3c4nc[nH]c4CCN3C(=O)c3nnc(-c4cncnc4)o3)cc12` [Example 1973, (R)-(4-(4-methylpyrazolo[1,5-a]pyridin-2-yl)-1,4,6,7-tetrahydro-5H-imidazo[4,5-c]pyridin-5-yl)(5-(pyrimidin-5-yl)-1,3,4-oxadiazol-2-yl)methanone], the half-maximal activity concentration (AC50) is over 5000 nM.
Regarding `O=C(c1nnc(-c2cncnc2)o1)N1CCc2[nH]cnc2[C@H]1c1cc2c(F)cccn2n1` [Example 1974, (S)-(4-(4-fluoropyrazolo[1,5-a]pyridin-2-yl)-1,4,6,7-tetrahydro-5H-imidazo[4,5-c]pyridin-5-yl)(5-(pyrimidin-5-yl)-1,3,4-oxadiazol-2-yl)methanone], the AC50 lay in the range of 500 to 1000 nM.
`O=C(c1nnc(-c2cncnc2)o1)N1CCc2[nH]cnc2[C@@H]1c1cc2c(F)cccn2n1` [Example 1975, (R)-(4-(4-fluoropyrazolo[1,5-a]pyridin-2-yl)-1,4,6,7-tetrahydro-5H-imidazo[4,5-c]pyridin-5-yl)(5-(pyrimidin-5-yl)-1,3,4-oxadiazol-2-yl)methanone]: the AC50 was over 5000 nM.
With `Fc1cccn2nc([C@H]3c4nc[nH]c4CCN3c3ccccn3)cc12` [Example 1976, (R)-4-(4-fluoropyrazolo[1,5-a]pyridin-2-yl)-5-(pyridin-2-yl)-4,5,6,7-tetrahydro-1H-imidazo[4,5-c]pyridine], the AC50 was over 5000 nM.
